Test system: colon cancer cell line HCT116
Assay: Proliferation rate of HCT116 in culture with drug
Format: cell-based, human
Conditions: cultured for 2 days
Procedure: The human-derived cancer cells used were a colon cancer cell line HCT116, a melanoma cell line A375 (used only in the tunicamycin combination test group), a lung cancer cell line A549 (used only in the tunicamycin combination test group), and a prostate cancer cell line DU145 (used only in the tunicamycin combination test group). On a 6-well plate, the human-derived cancer cells were cultured for 1 day in the presence of tunicamycin for the tunicamycin combination test group, and cultured for 2 days in the presence of the relevant drug used in combination for the fluorouracil combination test group and the irinotecan combination test group. The concentration of the drug used in combination was set to a concentration that decreased the proliferation rate of the cancer cells by about half at the completion of culture. […] As a control, a test group without a drug used in combination was established. In the control group, only DMSO (dimethyl sulfoxide), a solvent for the drug used in combination, was added to the cancer cells at a final concentration of 0.1% (v/v), and then the cancer cells were cultured for 2 days.

## O=c1[nH]cc(F)c(=O)[nH]1 [fluorouracil]
  concentration that decreased the proliferation rate of the cancer cells by about half at the completion of culture: 0.4 µg/mL
